According to patent US5223421A, “Identification of methionine Nα-acetyltransferase” (The General Hospital Corporation, priority 1990, dated 1993):
“Also recorded” adds a separate entry of the source. Where two headings read alike, the source gives them in different places. Values belong to the compound of their own block, whether it stands above or below them. Ends that are not written are not given here.

Experiments:
[1] = tested on: methionine N^α -acetyltransferase from S. cerevisiae; assay type: biochemical, Saccharomyces cerevisiae; conditions: for effect of divalent cation on M-N^α AT activity: 1 mM; for effect of ion or salt on M-N^α AT activity: concentration not given; for Enzyme Activity (%): 5 min room temperature, 50 mM HEPES pH 7.4, 1 mM DTT, substrate PAI (N=3)
Method: (§1) N^α -acetyltransferase activity was determined as previously described [Lee et al., J. Biol. Chem. 263:14948-14955 (1988)]. Aliquots of the lysate or chromatographic fractions were added to 1.5 ml Eppendorf tubes containing a reaction mixture of 50 mM HEPES, pH 7.4, 150 mM KCl, 1 mM DTT, 25 μM [^3 H] acetyl coenzyme A (0.5 μCi) and 50 μM synthetic peptide with an adjusted final volume of 100 μl. The assay mixture was incubated at 30° C. for 30 min. The reaction was stopped by adding 17 μl of 0.5M acetic acid and chilled in an ice bath. The reaction samples were filtered through SP membrane discs (Cuno) (previously pre-swollen in 0.5M acetic acid), and then washed three times with 1 ml of 0.5M acetic acid on a Millipore 1225 sampling manifold. The partially dried membranes were placed in scintillation cocktail and counted with a Beckman LS 3801 scintillation counter.
Yeast methionine acetyltransferase was incubated in the presence of various divalent cations at a room temperature for 5 min in 50 mM HEPES, pH 7.4 containing 1 mM DTT. The enzyme activity was determined under standard assay conditions using PAI (N=3), as described above.

[2] = tested on: methionine N^α -acetyltransferase from S. cerevisiae; experiment: Effect of protein modification reagents on enzyme activity; assay type: biochemical, Saccharomyces cerevisiae; conditions: for Enzyme Activity (%): 30° C. 15 min, then dialyzed, substrate PAI (N=3)
Method: as §1, with “counter. One unit of activity was defined as the amount of enzyme able to transfer 1 pmol of [^3 H] acetyl group from [^3 H] acetyl coenzyme A to synthetic peptide per min under standard enzyme assay conditions defined above.” for “counter.”
In order to determine the possible catalytic role for different types of amino acid residues in the enzyme, various chemical modifications were carried out (Table 10). Yeast methionine acetyltransferase was incubated with each reagent at 30° C. for 15 min, dialyzed against 50 mM HEPES, pH 7.4, 150 mM, 1 mM DTT at 4° C. for 3 to 4 hr. The enzyme activity was determined under standard assay conditions using PAI (N=3), assayed as described above.

[3] = target: T1, AAA1 N^α -acetyltransferase (N^α -AT) (Saccharomyces cerevisiae, UniProt P07347+P12945); experiment: Relative activity of N^α -AT for N^α -acetylation of synthetic peptides; assay type: biochemical
T1 sequence (P12945 2-854 limits assumed): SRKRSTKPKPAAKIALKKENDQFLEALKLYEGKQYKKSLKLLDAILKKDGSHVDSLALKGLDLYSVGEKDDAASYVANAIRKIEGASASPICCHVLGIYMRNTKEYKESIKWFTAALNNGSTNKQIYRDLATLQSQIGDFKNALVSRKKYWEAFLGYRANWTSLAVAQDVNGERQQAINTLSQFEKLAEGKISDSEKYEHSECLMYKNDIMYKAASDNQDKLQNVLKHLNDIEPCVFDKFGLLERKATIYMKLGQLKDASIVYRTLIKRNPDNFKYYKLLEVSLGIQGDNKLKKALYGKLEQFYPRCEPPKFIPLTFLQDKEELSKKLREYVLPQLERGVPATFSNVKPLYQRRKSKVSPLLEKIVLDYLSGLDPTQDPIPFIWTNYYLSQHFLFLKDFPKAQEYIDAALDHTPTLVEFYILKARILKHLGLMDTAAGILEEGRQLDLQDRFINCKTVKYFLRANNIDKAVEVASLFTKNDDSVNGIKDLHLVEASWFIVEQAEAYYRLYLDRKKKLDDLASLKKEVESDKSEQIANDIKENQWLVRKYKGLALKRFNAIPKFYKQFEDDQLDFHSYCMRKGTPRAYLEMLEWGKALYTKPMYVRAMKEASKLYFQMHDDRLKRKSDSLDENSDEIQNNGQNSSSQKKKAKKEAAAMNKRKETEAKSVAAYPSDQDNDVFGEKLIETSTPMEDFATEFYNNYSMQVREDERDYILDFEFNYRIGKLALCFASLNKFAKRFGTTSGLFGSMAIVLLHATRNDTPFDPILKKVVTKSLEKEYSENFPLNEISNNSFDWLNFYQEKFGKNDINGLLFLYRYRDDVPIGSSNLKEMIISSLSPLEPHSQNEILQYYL
T1 sequence (P07347 1-238): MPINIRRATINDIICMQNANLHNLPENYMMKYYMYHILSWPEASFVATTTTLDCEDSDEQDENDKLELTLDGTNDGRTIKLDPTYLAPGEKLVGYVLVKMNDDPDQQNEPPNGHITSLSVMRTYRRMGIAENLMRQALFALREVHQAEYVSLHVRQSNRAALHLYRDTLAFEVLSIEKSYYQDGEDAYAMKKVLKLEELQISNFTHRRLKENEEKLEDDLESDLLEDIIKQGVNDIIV
Method: as §1, with “-acetylt[…]” for “-acetyltransferase activity”, “counter. One unit of activity was defined as the amount of enzyme able to transfer 1 pmol of [^3 H] acetyl group from [^3 H] acetyl coenzyme A to synthetic peptide per min under standard enzyme assay conditions defined above.” for “counter.”
(§2) In order to compare the relative specificity and activity of the methionine N^α -acetylt[…] (M-N^α -AT) of the present invention with the specificity and activity of the AAA1 N^α -acetyltransferase (N^α -AT) of Lee, F.-J. S., et al., J. Bacteriol. 171, (1989), U.S. Patent Application of John A. Smith, and Fang-Jen S. Lee, filed Oct. 25, 1989, entitled "ISOLATION OF STRAINS OF SAC[…] ALTERED N^α -ACETYLT[…]" (which references have been incorporated herein by reference) synthetic peptides were prepared. These peptides were assessed for their ability to serve as substrates for the two enzymes. In Table 6, the effect of the amino terminal amino acid on activity is investigated; in Table 7, the effect of the penultimate amino terminal amino acid on activity is investigated.

[4] = tested on: methionine N^α -acetyltransferase (M-N^α -AT); experiment: Relative activity of M-N^α -AT for N^α -acetylation of synthetic peptides; assay type: biochemical, Saccharomyces cerevisiae; parameters: tested at 50 µM; conditions: Table 7, influence of the penultimate amino terminal residue
Method: as §1, with “-acetylt[…]” for “-acetyltransferase activity”, “counter. One unit of activity was defined as the amount of enzyme able to transfer 1 pmol of [^3 H] acetyl group from [^3 H] acetyl coenzyme A to synthetic peptide per min under standard enzyme assay conditions defined above.” for “counter.”
as §2

[5] = Table 6, influence of the amino terminal residue
[6] = Table 7, influence of the penultimate amino terminal residue

Compound: [Ca+2].[Cl-].[Cl-] [CaCl2]
effect of divalent cation on M-N^α AT activity [1]: had no effect | effect of ion or salt on M-N^α AT activity [1]: did not affect enzyme activity | Enzyme Activity (%) ([1]; salt 1 mM): 102%

Compound: [Cl][Cd][Cl] [CdCl2]
effect of ion or salt on M-N^α AT activity ([1]; listed as Cd^2+): pronounced and concentration-dependent inhibition; also recorded: also inhibited | Enzyme Activity (%) ([1]; salt 0.01 mM): 103% | Enzyme Activity (%) ([1]; salt 0.1 mM): 72% | Enzyme Activity (%) ([1]; salt 1 mM): 0%

Compound: [Cl-].[Cl-].[Co+2] [CoCl2]
effect of ion or salt on M-N^α AT activity [1]: pronounced and concentration-dependent inhibition | Enzyme Activity (%) ([1]; salt 0.01 mM): 106% | Enzyme Activity (%) ([1]; salt 0.1 mM): 95% | Enzyme Activity (%) ([1]; salt 1 mM): 38%

effect of reagent on M-N^α AT activity ([2]; concentration not given): nearly complete inactivation | Enzyme Activity (%) ([2]; reagent 0.05 mM): 59% | Enzyme Activity (%) ([2]; reagent 0.5 mM): 0%
Compound: CCOC(=O)OC(=O)OCC [DEPC, diethyl pyrocarbonate]

Compound: O=S(=O)([O-])[O-].[Fe+2] [FeSO4]
effect of ion or salt on M-N^α AT activity [1]: pronounced and concentration-dependent inhibition | Enzyme Activity (%) ([1]; salt 0.01 mM): 108% | Enzyme Activity (%) ([1]; salt 0.1 mM): 93% | Enzyme Activity (%) ([1]; salt 1 mM): 40%

effect of reagent on M-N^α AT activity ([2]; concentration not given): partially inactivated the enzyme | Enzyme Activity (%) ([2]; reagent 1.0 mM): 93% | Enzyme Activity (%) ([2]; reagent 10.0 mM): 62%
Compound: C[S+](C)Cc1cc([N+](=O)[O-])ccc1O.[Br-] [HNBS(CH3)2 -Br, dimethyl-(2-hydroxy-5-nitrobenzyl)sulfonium bromide]

Compound: [Cl-].[Cl-].[Mg+2] [MgCl2]
effect of ion or salt on M-N^α AT activity [1]: did not affect enzyme activity | Enzyme Activity (%) ([1]; salt 0.1 mM): 105% | Enzyme Activity (%) ([1]; salt 1 mM): 98%

Compound: O=S(=O)([O-])[O-].[Mg+2] [MgSO4]
effect of ion or salt on M-N^α AT activity [1]: did not affect enzyme activity | Enzyme Activity (%) ([1]; salt 0.1 mM): 102% | Enzyme Activity (%) ([1]; salt 1 mM): 97%

Compound: [Mg+2] [Mg^2+]
effect of divalent cation on M-N^α AT activity [1]: had no effect

Compound: [Cl][Mn][Cl] [MnCl2]
effect of divalent cation on M-N^α AT activity [1]: had no effect | effect of ion or salt on M-N^α AT activity [1]: did not affect enzyme activity | Enzyme Activity (%) ([1]; salt 0.1 mM): 103% | Enzyme Activity (%) ([1]; salt 1 mM): 98%

effect of reagent on M-N^α AT activity ([2]; concentration not given): without effect | Enzyme Activity (%) ([2]; reagent 1.0 mM): 100% | Enzyme Activity (%) ([2]; reagent 10.0 mM): 93%
Compound: CC(=O)n1ccnc1 [N-acetylimidazole]

effect of reagent on M-N^α AT activity ([2]; 0.5 mM): partially inactivated the enzyme | effect of reagent on M-N^α AT activity ([2]; 5 mM): completely inactivated the enzyme | Enzyme Activity (%) ([2]; reagent 0.5 mM): 30% | Enzyme Activity (%) ([2]; reagent 5.0 mM): 0%
Compound: O=C1CCC(=O)N1Br [NBS, N-bromosuccinimide]

Compound: NO [hydroxylamine]
effect of reagent on M-N^α AT activity ([2]; concentration not given): slowly inactivated the enzyme | original enzyme activity recovered after diethyl pyrocarbonate inactivation ([2]; incubation 6 hr at room temperature with […] hydroxylamine, 250000 µM): ~ 50%

Compound: FIPETQKGVIFYESHGKLEYKDIP (FIPETQKGVIFYESHGKLEYKDIP)
Activity (%) (mean activity ± S.D.) N^a -AT [3, 5]: 9 ± 2%

Compound: HIPETQKGVIFYESHGKLEYKDIP (HIPETQKGVIFYESHGKLEYKDIP; also: tritium label)
Activity (%) (mean activity ± S.D.) N^a -AT [3, 5]: 19 ± 2%

Compound: MIPETQKGVIFYESHGKLEYKDIP (MIPETQKGVIFYESHGKLEYKDIP)
Activity (%) (mean activity ± S.D.) N^a -AT [3, 5]: 15 ± 2%

Compound: PIPETQKGVIFYESHGKLEYKDIP (PIPETQKGVIFYESHGKLEYKDIP)
Activity (%) (mean activity ± S.D.) N^a -AT [3, 5]: 70 ± 4%

Compound: SAPETQKGVIFYESHGKLEYKDIP (SAPETQKGVIFYESHGKLEYKDIP)
Activity (%) (mean activity ± S.D.) N^a -AT [3, 6]: 168 ± 8% | Activity (%) (mean activity ± S.D.) M-N^a -AT [4]: 0%

Compound: SCPETQKGVIFYESHGKLEYKDIP (SCPETQKGVIFYESHGKLEYKDIP)
Activity (%) (mean activity ± S.D.) N^a -AT [3, 6]: 136 ± 7% | Activity (%) (mean activity ± S.D.) M-N^a -AT [4]: 0%

Compound: SDPETQKGVIFYESHGKLEYKDIP (SDPETQKGVIFYESHGKLEYKDIP)
Activity (%) (mean activity ± S.D.) N^a -AT [3, 6]: 171 ± 9% | Activity (%) (mean activity ± S.D.) M-N^a -AT [4]: 0%

Compound: TIPETQKGVIFYESHGKLEYKDIP (TIPETQKGVIFYESHGKLEYKDIP)
Activity (%) (mean activity ± S.D.) N^a -AT [3, 5]: 103 ± 5%

Compound: VIPETQKGVIFYESHGKLEYKDIP (VIPETQKGVIFYESHGKLEYKDIP)
Activity (%) (mean activity ± S.D.) N^a -AT [3, 5]: 69 ± 4%

Compound: YIPETQKGVIFYESHGKLEYKDIP (YIPETQKGVIFYESHGKLEYKDIP)
Activity (%) (mean activity ± S.D.) N^a -AT [3, 5]: 20 ± 2%
